Test system: not listed separately
Experiment: (§1) Inhibition of Mycobacterium tuberculosis H37Rv chorismate mutase expressed in Escherichia coli BL21 (DE3) assessed as conversion of chorismate to prephenate after 5 mins by spectrophotometry

Compound `N#CC1=C(N)Oc2ccc3ccccc3c2C1c1cccc(C#CCCCO)c1` (centres undefined) has an IC50 of 15.6 µM.

Test system: Mycobacterium tuberculosis H37Rv
Experiment: as §1

With `N#CC1=C(N)Oc2ccc3ccccc3c2C1c1cccc(C#CCCCO)c1` (centres undefined) the inhibition was “Dose-dependent effect”.

Test system: Mycobacterium tuberculosis H37Rv
Experiment: Inhibition of Mycobacterium tuberculosis H37Rv chorismate mutase expressed in Escherichia coli BL21 (DE3) assessed as conversion of chorismate to prephenate at 50 uM after 5 mins by spectrophotometry

Going from `CC(=O)/C=C/c1cccc(C2C(C#N)=C(N)Oc3ccc4ccccc4c32)c1` (centres undefined) to `COC(=O)/C=C/c1cccc(C2C(C#N)=C(N)Oc3ccc4ccccc4c32)c1` (centres undefined), the inhibition rises from 10% to 33%.

Going from `N#CC1=C(N)Oc2c(ccc3ccccc23)C1c1cccc(C#CC2(O)CCCCC2)c1` (centres undefined) to `N#CC1=C(N)Oc2c(ccc3ccccc23)C1c1ccccc1C#CC1(O)CCCCC1` (centres undefined), the inhibition falls from 28% to 24%.

Compared with `CCCCCCCCC#Cc1ccccc1C1C(C#N)=C(N)Oc2c1ccc1ccccc21` (centres undefined), `CCCCCCC#Cc1ccccc1C1C(C#N)=C(N)Oc2c1ccc1ccccc21` (centres undefined) is higher in inhibition: 50% for the first, 55% for the second.

Going from `N#CC1=C(N)Oc2ccc3ccccc3c2C1c1cccc(C#CCCO)c1` (centres undefined) to `N#CC1=C(N)Oc2ccc3ccccc3c2C1c1cccc(C#CCCCO)c1` (centres undefined), the inhibition rises from 69% to 70%.

First: CC(C)(C)OC(=O)/C=C/c1cccc(C2C(C#N)=C(N)Oc3ccc4ccccc4c32)c1 (centres undefined)
Second: CCOC(=O)/C=C/c1cccc(C2C(C#N)=C(N)Oc3ccc4ccccc4c32)c1 (centres undefined)
The inhibition of the first is higher: 64% for the first, 30% for the second.

Compared with `N#CC1=C(N)Oc2c(ccc3ccccc23)C1c1cccc(C#CCCCO)c1` (centres undefined), `CCCCC#Cc1ccccc1C1C(C#N)=C(N)Oc2c1ccc1ccccc21` (centres undefined) is higher in inhibition: 32% for the first, 57% for the second.
